Results on 2 compounds are retold here after patent US7651661B2, “Medical devices with broad spectrum antimicrobial activity” (Board of Regents, the University of Texas System, priority 2001, dated 2010).

The assay relates to PS4205 (Pseudomonas aeruginosa). The assay is described as follows: Zones of inhibition of impregnated devices, modified Kirby-Bauer technique. In kind it is cell-based. Here is the method:
Potassium tert-butoxide in THF, 7.35 ml of 1M solution, was added to a solution of CHX diacetate, 1.533 g; 2.45 mmol in 35 ml THF. The resulting heterogeneous solution was stirred for 20 minutes, then added to a solution GV, 1.0 g; 2.45 mmol, in 30 ml THF (GV used as an example of Triarylmethane Dye). The mixture was stirred at ambient conditions for 1 hour, then placed under the hood overnight to evaporate the solvent. The resulting residue was dissolved in 30 ml DCM (or MeOH). When applicable, the base (such as neutral form of chlorhexidine) is added to a stirring solution of dye (such as GV) in DCM and the resulting mixture is stirred for at least 1 h. With anionic dyes, dissolution is achieved with the addition of at least one equivalent of a quaternary amine (such as tetraethylammonium) prior to addition of the base. One-centimeter device segments were immersed in the DCM solution for the appropriate period, generally PVC and PU for 10 minutes; Silicone (Si) and Silk Suture for 2 hours. The devices were removed from the solution, and traces of solution were removed from the lumen when applicable. The impregnated devices were placed under the hood to dry for at least 4 hours, preferably over night, then washed with distilled water until the washings were colorless or very faint, and finally placed under an aseptic hood to dry under ambient conditions for at least 4 hours, preferably overnight.
The antimicrobial activity of impregnated catheters was evaluated in duplicate by a modified Kirby-Bauer technique. BBL Mueller Hinton II agar plates (obtained from Fisher Scientific) were inoculated with 0.5 McFarland of the appropriate microorganism (hospital isolates from the MD Anderson Cancer Center). Then 10 mm segments of impregnated devices were embedded in the inoculated plates and placed in an incubator at about 37° C. for at least 18 hours. Zones of inhibition were measured perpendicular to the long axis of the device. Bioactivity against yeast constituted of two zones; a large outer zone of partial growth inhibition, and an inner smaller zone of complete inhibition. […]

Where [1] appears, read: PVC and silicone (Si) devices impregnated with the reagent alone.

In the case of `CN(C)c1ccc(C(=C2C=CC(=[N+](C)C)C=C2)c2ccc(N(C)C)cc2)cc1` [GV, Gentian violet], the “activity against Pseudomonas aeruginosa” value is on record as “no activity” under setting [1] and “no activity” (after impregnating the surfaces of various polymers, including polyvinylchloride).
In the case of `[H]/N=C(\N/C(=N/[H])NCCCCCCNC(=N)NC(=N)Nc1ccc(Cl)cc1)Nc1ccc(Cl)cc1` [CHX, chlorhexidine], the “activity against Pseudomonas aeruginosa” value under setting [1] was “no activity”.
